Laboratory results taken from patent US10168342B2, “Lipid probes and uses thereof” (THE SCRIPPS RESEARCH INSTITUTE, priority 2015, dated 2019).

Tests used:
NENF = biological target: T1, NENF (Homo sapiens, UniProt Q9UMX5); assay: In vitro gel-based competition of AEA-DA probe labeling of NENF; type: binding; details: competitors 1-100 μM, NENF-transfected HEK293T lysates
T1 construct: Full-length cDNAs encoding for the each protein of interest were subcloned into pcDNA3.1 myc-His A; Myc (myc-His of pcDNA3.1 myc-His A); expressed in transfected cells; host or cells: HEK293T (lysates)
T1 sequence (Q9UMX5 32-172, species assumed): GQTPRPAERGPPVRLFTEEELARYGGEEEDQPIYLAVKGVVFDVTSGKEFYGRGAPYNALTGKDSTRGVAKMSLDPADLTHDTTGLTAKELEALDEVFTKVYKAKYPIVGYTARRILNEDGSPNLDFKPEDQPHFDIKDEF
Description: Full-length cDNAs encoding for the each protein of interest were subcloned into pcDNA3.1 myc-His A (Invitrogen) or used directly for transfections if available in a eukaryotic expression vector. HEK293T cells were grown to ˜70% confluence under standard growth conditions before adding the appropriate cDNA [control cells (“mock”) received an equal amount of empty pcDNA3.1 myc-His A vector] and FuGENE 6 or X-tremeGENE HP (Roche) transfection reagent according to the manufacturer's instructions. Cells were incubated for 36-48 hours before labeling in situ or harvesting for in vitro experiments.
Cell lysates (1.0 mg/mL), the indicated lipid probe (2.5 or 5 μM) and, for recombinant NUCB1 competition experiments, purified hNUCB1 (250 nM) and CaCl2 (100 μM) were mixed on ice. […] The samples were then irradiated with UV light and subjected to previously described click chemistry conditions. As before, each reaction was quenched with 4×SDS loading buffer (17 μL), and proteins were resolved using SDS-PAGE (10% acrylamide gel) and analyzed by in-gel fluorescent scanning on a Hitachi FMBIO-II flatbed fluorescence scanner. NUCB1 competition was quantitatively assessed by measuring the fluorescent intensity of the corresponding gel band using ImageJ 1.48v and normalizing this value by a non-competed gel band to control for loading differences.
Metabolite data are shown as mean±SEM (n=3-5/group). Differences between two groups were determined using Student's t test (unpaired, two-tailed) and significance was denoted for P values<0.05.

human NUCB1 = biological target: T2, human NUCB1 (Homo sapiens, UniProt Q02818); assay: FluoPol assay / high throughput screen with Fl-AEA and recombinant NUCB1; type: binding; details: competitor lipids, recombinant NUCB1
T2 construct: made in house; host or cells: Escherichia coli BL21(DE3)
T2 sequence (Q02818 27-461): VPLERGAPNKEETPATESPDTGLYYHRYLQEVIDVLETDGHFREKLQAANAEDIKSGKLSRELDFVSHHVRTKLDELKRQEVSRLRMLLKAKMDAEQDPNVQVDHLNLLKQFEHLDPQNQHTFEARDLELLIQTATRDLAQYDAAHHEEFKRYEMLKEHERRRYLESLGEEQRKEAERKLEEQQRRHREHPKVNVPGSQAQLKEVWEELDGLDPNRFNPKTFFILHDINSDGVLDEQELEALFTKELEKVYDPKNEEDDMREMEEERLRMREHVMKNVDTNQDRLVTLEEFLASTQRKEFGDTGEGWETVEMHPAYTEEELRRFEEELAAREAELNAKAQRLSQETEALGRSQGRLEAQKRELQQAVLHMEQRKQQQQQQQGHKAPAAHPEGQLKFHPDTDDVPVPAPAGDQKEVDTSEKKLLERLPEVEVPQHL
Description: FluoPol conditions were optimized by screening various concentrations of Fl-AEA, hNUCB1, CaCl2 and Pluronic F-127 against positive and negative controls. Arachidonic acid (20 μM final) was used as a positive control, and DMSO as a negative. Additionally, protein-free controls were used to normalize for background signal. […] The Z′-factor for these conditions was determined to be 0.54, indicating a high signal to noise assay.
A 10 μL solution of hNUCB1 (1 μM), Fl-AEA (0.5 μM), CaCl2 (20 μM), and Pluronic F-127 (0.01%) was added to a Greiner 384-well plate. Additionally, in some wells protein was omitted to serve as a blank control for background signal. To the protein containing wells 16,000 compounds (50 nL in DMSO, 2 mM) from the Maybridge Hitfinder library were added by a pin-tool robot. Additionally, on each plate to some wells arachidonic acid (20 μM final) or DMSO were added as positive and negative controls to allow normalization between plates. The plates were allowed to incubate for 5 minutes at room temperature, then fluorescence polarization was measured by measuring fluorescence intensity through polarized 595 nm filters. Hits were selected based on maximal probe competition.

[1] = biological target: A-DA lipid probe targets in A549 cells (Homo sapiens, UniProt Q5HYK3); assay: In situ competitive SILAC profiling with A-DA probe in (PMA-stimulated) A549 cells; details: A549 cells, A-DA probe
Sequence of A-DA lipid probe targets in A549 cells (Homo sapiens, UniProt Q5HYK3) (Q5HYK3 43-327): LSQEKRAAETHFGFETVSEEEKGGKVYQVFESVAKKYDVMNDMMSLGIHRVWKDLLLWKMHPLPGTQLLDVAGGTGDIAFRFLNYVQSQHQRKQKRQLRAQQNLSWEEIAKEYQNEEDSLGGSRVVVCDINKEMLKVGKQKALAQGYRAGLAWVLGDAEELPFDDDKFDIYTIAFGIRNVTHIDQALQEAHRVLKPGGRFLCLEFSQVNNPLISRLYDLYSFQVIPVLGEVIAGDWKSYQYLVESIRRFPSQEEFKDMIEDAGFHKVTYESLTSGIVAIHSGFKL

[2] = biological target: T3, A-DA lipid probe targets in A549 cells (Homo sapiens, UniProt Q9UH99); assay: as above; details: protein SUN2 (Q9UH99), A549 cells
T3 sequence (Q9UH99 1-717): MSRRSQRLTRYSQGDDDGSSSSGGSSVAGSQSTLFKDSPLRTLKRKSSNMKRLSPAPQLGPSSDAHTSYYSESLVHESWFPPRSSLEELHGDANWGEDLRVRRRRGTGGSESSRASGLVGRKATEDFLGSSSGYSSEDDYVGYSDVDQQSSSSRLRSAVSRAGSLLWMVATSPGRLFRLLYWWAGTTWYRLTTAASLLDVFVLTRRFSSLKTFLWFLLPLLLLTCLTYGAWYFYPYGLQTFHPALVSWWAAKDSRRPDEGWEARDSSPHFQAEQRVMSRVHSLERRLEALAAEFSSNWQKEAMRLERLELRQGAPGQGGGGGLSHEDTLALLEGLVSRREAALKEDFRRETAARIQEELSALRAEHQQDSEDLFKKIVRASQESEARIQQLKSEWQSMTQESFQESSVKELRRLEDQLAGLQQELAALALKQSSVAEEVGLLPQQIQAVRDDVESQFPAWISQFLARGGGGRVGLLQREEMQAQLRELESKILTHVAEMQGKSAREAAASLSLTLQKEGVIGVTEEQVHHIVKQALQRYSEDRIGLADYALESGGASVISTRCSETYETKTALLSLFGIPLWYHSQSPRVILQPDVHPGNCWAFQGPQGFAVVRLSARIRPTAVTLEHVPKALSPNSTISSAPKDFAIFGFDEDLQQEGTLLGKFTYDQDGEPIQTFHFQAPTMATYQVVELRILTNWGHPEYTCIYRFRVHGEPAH

`CCCCC/C=C\C/C=C\C/C=C\C/C=C\CCCC(=O)NCCO` [AEA, anandamide, reference compound] was tested, and the “competition of AEA-DA probe labeling of recombinant NENF” value (NENF) was “competitively blocked” and the “suppression of the NUCB1-FluoPol signal (blockade of Fl-AEA binding)” value (human NUCB1) was “Concentration-dependent suppression”.

`C=CCN(C)CCCCCCOc1ccc(C(=O)c2ccc(Br)cc2)c(F)c1` [Ro488071] was tested, and the “SILAC ratio, COQ5 (Q5HYK3)” value ([1]; competitor 5 μM) was 2.0 and the “SILAC ratio, COQ5 (Q5HYK3)” value ([1]; competitor 50 μM) was 3.4.

In the case of `C=CCN(C)CCCCCCOc1ccc(C(=O)c2ccc(Br)cc2)c(F)c1` [Ro 48-8071, reference compound], the “SILAC ratio, A-DA competition” value ([2]; competitor 5.0 μM) is reported as 1.3 and the “SILAC ratio, A-DA competition” value ([2]; competitor 50 μM) is reported as 1.3.
